Data from publication PMC6587462 (Journal of Clinical Pharmacology, 2018).
“And” between values parts separate entries of the source, which are not always exact repeats. Equal entries are not always repeated. “Also recorded” adds a separate entry of the source. Where two headings read alike, the source gives them in different places.

What was measured:
[1] = Study 4 pilot bioequivalence study, PK after single oral NEPA; type: in vivo; conditions: human, plasma
[2] = Study 5 bioequivalence study, PK after single oral NEPA; type: in vivo, human
[3] = Study 9 replicate crossover bioequivalence study; type: in vivo, human
[4] = Study 10 comparative bioavailability study; type: in vivo, human
[5] = Study 11 population PK/pharmacodynamic study in cancer patients; type: in vivo, human; conditions: population PK modeling in patients
[6] = Study 12 PK/safety and DDI study in cancer patients; type: in vivo; conditions: human, plasma, oral
[7] = Oral NEPA PK in cancer patients, summary across studies; type: in vivo; conditions: human, plasma
[8] = Study 2 ADME study of [14C]-netupitant; type: in vivo, human; conditions: estimated at day 29 after administration
[9] = Apical-to-basolateral permeability in Caco-2 monolayer; type: in vitro ADME; conditions: human
[10] = Biopharmaceutics Classification System class and solubility in water; type: physicochemical
[11] = Octanol-water partition coefficient; type: physicochemical
[12] = molecular target: T1, P‐glycoprotein (P‐gp) efflux transporter (Homo sapiens, UniProt P08183); test: In vitro interaction with P-gp; type: in vitro ADME
[13] = Binding to plasma proteins; type: in vitro ADME; conditions: human, plasma
[14] = tested on: plasma proteins; test: Binding to plasma proteins; type: in vitro ADME
[15] = Absolute / oral bioavailability; type: in vivo; conditions: human, plasma, oral
[16] = molecular target: CYP2D6 (Homo sapiens, UniProt P10635); test: In vitro CYP2D6 inhibition; type: in vitro ADME
[17] = design: species or system human; conditions: estimated from t1/2
[18] = cited from earlier work
[19] = cited from earlier work; for CL/F / Cmax / Tmax / Vz/F / t1/2: Study 8, healthy volunteers (22), NEPA FDC, mean (CV%)
[20] = Study 11 population PK, patients (117), NEPA FDC, cited from earlier work
[21] = absorption, binding, metabolic, or excretory level; cited from earlier work
[22] = cited from earlier work; remark: listed apart in the source
[23] = netupitant; cited from earlier work
[24] = molecular target: T1, P‐glycoprotein (P‐gp) efflux transporter; conditions: in vitro, cited from earlier work
[25] = molecular target: CYP3A4 (Homo sapiens, UniProt P08684); conditions: in vitro; cited from earlier work
[26] = tested on: NK1 receptor; conditions: PET; at 6 hours after single 300-mg oral netupitant; cited from earlier work
[27] = tested on: NG108‐15 cells; conditions: netupitant and palonosetron combined; cited from earlier work
[28] = molecular target: NK1 receptor (Homo sapiens, UniProt P25103); conditions: NG108-15 cells; netupitant and palonosetron combined; cited from earlier work
[29] = clinical; conditions: human, in vivo, po
[30] = single-dose NEPA with 400-mg ketoconazole for 12 days vs alone
[31] = single-dose NEPA with daily 600-mg rifampicin for 17 days

T1 sequence (P08183 whole entry): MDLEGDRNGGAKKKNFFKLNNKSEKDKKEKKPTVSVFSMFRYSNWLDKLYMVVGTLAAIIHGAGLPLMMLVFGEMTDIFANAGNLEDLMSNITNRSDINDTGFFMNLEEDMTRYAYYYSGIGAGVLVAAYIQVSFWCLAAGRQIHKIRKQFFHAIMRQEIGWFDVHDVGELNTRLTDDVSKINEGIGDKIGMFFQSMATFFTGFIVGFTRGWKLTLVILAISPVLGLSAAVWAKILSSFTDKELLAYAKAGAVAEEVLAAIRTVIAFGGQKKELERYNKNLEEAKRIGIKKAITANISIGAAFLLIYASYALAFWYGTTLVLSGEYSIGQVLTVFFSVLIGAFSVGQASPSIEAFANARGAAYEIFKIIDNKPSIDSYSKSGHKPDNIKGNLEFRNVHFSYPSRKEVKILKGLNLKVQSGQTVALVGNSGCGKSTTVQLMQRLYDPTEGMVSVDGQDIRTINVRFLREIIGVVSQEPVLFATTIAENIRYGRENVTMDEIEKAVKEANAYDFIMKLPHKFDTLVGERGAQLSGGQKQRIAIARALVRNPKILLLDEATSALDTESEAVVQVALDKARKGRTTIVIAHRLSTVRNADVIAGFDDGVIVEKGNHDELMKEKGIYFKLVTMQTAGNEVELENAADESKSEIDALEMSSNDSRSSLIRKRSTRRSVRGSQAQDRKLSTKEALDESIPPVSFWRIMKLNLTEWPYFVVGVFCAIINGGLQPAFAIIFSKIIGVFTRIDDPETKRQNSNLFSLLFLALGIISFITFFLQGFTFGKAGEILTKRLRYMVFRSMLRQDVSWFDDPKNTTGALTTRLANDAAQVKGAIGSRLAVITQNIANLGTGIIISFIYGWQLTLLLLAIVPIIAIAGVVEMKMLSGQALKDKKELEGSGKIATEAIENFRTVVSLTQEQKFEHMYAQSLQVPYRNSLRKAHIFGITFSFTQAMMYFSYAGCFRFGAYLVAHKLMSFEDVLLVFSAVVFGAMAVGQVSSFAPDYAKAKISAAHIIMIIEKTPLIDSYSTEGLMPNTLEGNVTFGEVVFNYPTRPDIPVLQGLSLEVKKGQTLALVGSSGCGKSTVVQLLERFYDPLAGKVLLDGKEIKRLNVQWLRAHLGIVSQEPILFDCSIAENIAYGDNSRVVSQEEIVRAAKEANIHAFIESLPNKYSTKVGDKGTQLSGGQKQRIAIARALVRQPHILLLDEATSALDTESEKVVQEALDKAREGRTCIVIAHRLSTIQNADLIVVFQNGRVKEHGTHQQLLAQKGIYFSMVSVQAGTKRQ
Sequence of CYP3A4 (P08684 whole entry): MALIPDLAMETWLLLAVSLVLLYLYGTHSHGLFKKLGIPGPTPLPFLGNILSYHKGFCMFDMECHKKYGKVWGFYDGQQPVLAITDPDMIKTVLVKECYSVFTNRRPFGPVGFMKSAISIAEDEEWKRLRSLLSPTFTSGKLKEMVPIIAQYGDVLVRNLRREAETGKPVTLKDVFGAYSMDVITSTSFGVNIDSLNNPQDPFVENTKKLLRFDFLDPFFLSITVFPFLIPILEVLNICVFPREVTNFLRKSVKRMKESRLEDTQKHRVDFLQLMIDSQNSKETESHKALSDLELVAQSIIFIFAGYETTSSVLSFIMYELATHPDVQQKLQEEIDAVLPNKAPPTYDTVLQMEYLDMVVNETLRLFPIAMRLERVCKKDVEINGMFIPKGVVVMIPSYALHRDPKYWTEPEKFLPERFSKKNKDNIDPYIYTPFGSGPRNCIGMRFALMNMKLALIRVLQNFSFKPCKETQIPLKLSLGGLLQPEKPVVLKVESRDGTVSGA
Sequence of NK1 receptor (Homo sapiens, UniProt P25103) (P25103 whole entry, species assumed): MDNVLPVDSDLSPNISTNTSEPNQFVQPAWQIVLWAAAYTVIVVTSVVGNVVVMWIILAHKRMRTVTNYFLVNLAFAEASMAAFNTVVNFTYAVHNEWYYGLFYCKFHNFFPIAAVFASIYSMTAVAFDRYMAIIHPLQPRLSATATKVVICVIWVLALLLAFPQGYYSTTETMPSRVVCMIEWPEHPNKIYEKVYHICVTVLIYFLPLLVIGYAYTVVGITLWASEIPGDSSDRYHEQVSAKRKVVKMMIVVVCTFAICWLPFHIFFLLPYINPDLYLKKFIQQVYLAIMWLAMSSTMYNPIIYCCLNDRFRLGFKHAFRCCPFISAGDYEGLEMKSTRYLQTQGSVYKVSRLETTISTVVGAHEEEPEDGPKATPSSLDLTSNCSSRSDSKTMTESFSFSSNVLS
Sequence of CYP2D6 (P10635 whole entry): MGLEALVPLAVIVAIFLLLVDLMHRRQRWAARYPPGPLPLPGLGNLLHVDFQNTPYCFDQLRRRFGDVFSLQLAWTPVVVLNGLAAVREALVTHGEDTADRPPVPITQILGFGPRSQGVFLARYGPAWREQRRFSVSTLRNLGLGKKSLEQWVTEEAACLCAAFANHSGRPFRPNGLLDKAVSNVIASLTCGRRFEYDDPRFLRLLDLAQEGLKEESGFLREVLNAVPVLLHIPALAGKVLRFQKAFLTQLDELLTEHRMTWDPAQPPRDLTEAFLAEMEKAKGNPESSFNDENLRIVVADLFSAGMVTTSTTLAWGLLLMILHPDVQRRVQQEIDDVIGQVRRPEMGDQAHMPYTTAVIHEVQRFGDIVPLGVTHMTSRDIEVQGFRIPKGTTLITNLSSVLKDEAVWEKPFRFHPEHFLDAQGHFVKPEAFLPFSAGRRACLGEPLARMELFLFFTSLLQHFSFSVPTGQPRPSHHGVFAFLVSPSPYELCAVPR

Cc1ccccc1-c1cc(N2CCN(C)CC2)ncc1N(C)C(=O)C(C)(C)c1cc(C(F)(F)F)cc(C(F)(F)F)c1 [netupitant]
Tmax [1]: 5.38 h
Vd/F [1]: 2780 L
half-life [1]: 89.2 h
CL/F ([2]; Study 5, healthy volunteers (47), single oral NEPA FDC, mean (CV%)): 26.3 (47.4) L/h
Cmax ([2]; human, plasma, po): 434 ng/mL
Tmax ([2]; human, plasma, po): 5.07 h
Vd/F ([2]; human, plasma, po): 3310 L
half-life ([2]; human, plasma, po): 95.6 h
CL/F ([3]; Study 9, healthy volunteers (82), NEPA FDC commercial product, mean (CV%)): 26.2 (51.2) L/h
Cmax ([3]; human, plasma, oral): 454 ng/mL
Tmax ([3]; human, plasma, oral): 5.01 h
Vd/F ([3]; human, plasma, oral): 2740 L
half-life ([3]; human, plasma, oral): 76.6 h
CL/F ([4]; Study 10, healthy volunteers (24), NEPA FDC standard dissolution, mean (CV%)): 25.7 (40.9) L/h
Cmax ([4]; human, plasma, oral): 374 ng/mL
Tmax ([4]; human, plasma, oral): 5.15 h
Vd/F ([4]; human, plasma, oral): 3160 L
half-life ([4]; human, plasma, oral): 89.9 h
absorption lag time [5]: 0.77 h
absorption rate constant [5]: 0.956 h⁻¹
Vd/F [6]: 1860 to 2260 L
Cmax [7]: 477 to 567 ng/mL
Tmax [7]: 4.02 to 4.56 h
Vd/F [7]: 1660 to 2260 L
fraction of netupitant eliminated [8]: approximately 90%
Papp [9]: > 20 ×10⁻⁶ cm/s
Biopharmaceutics Classification System class [10]: 2
logP [11]: 5.1
Ki [12]: 3 µM
fold by which unbound peak plasma concentration is lower than P-gp Ki ([12]; human, not told, oral): approximately 5 fold
fraction unbound [13]: < 0.01
binding to plasma proteins [14]: > 99%
bioavailability [15]: 63 to 87%
inhibition or induction of CYP2D6 [16]: not an inhibitor or inducer
fraction from previous NEPA administration eliminated at next dose ([17]; chemotherapy every 2 weeks): approximately 95%
fraction from previous NEPA administration eliminated at next dose ([17]; chemotherapy every 3 weeks): approximately 99%
CL/F (Healthy volunteers, Min-Max of study means, single oral NEPA): 16.3 to 26.3 L/h
time after dosing until which plasma concentrations were quantifiable (after NEPA, M2 below LLOQ thereafter, others up to last observation time): 10 days
plasma concentration as fraction of mean Cmax (at 3 hours after oral NEPA): approximately 80%
peak plasma concentration of unbound netupitant (human, in vivo): 0.65 µM
fold increase of AUCinf [18, 30]: 2.4 fold
fold increase of Cmax [18, 30]: 1.2 fold
fold decrease of AUCinf [18, 31]: 4.9 fold
fold decrease of Cmax [18, 31]: 2.2 fold
CL/F ([19]; fasted): 20.5 (52.7) L/h
Cmax ([19]; fasted): 596.4 (39.1) ng/mL
Tmax ([19]; fasted): 5.14 (17.3) h
Vz/F ([19]; fasted): 2851 (57.3) L
t1/2 ([19]; fasted): 101.2 (52.2) h
CL/F ([19]; fed): 16.3 (23.1) L/h
Cmax ([19]; fed): 649.8 (21.8) ng/mL
Tmax ([19]; fed): 5.66 (17.1) h
Vz/F ([19]; fed): 1984 (40.1) L
t1/2 ([19]; fed): 86.3 (46.2) h
AUCinf and Cmax under fed (high-fat breakfast) vs fasting conditions ([19]; open, randomized, 2-way crossover study in healthy volunteers): similar
Cmax ([20]; mean (CV%)): 567.3 (38.2) ng/mL
Tmax ([20]; mean (CV%)): 4.02 (59.1) h
t1/2 ([20]; mean (CV%)): 92.8 (32.8) h
CL/F ([20]; value (%RSE)): 20.5 (%RSE 16.3) L/h
PK interaction between netupitant and palonosetron [21]: no relevant PK interactions
mass balance recovery of total radioactivity in urine ([22]; [14C]-netupitant and its metabolites M1, M2, and M3): 4.75%
administered dose excreted through the feces (hepatic/biliary route) ([22]; netupitant and its metabolites): 87% and 86.5%
solubility in water [23]: very slightly soluble
substrate of P-gp (MDR1/P-gp) efflux transporter [24]: not a P‐gp substrate; also recorded: not substrates
inhibitor of P-gp efflux transporter ([24]; parent drugs): P‐gp inhibitor
CYP3A4 inhibition [25]: moderate inhibitor
NK1 receptor occupancy in the striatum [26]: 92.5%
combined effect on inhibition of substance P-mediated response [27]: synergistic effects
combined effect on triggering NK1 receptor internalization [28]: additive effects
Cmax [29]: 374 to 650 ng/mL
Tmax [29]: 4.36 to 5.66 h
Vd/F [29]: 1980 to 3310 L
half-life [29]: 75.3 to 101 h
